Experiments:
[1] = tested on: tobacco leaves (Nicotiana tabacum); assay: Treatment of individual tobacco leaves with test solutions, nicotine reduction; type: in vivo; conditions: incubated for about 3 days
[2] = tested on: transgenic tobacco plant leaves; conditions: transgenic tobacco leaves starting at 0.05 mg per gram; one GOX-leaf bruising treatment
Description: One group of the tobacco plants was exposed to H. zea neonates for a three day period during the growing season. A second group of the tobacco plants was exposed to H. zea neonates multiple times each for a three-day period during the growing season. A third group of tobacco plants was isolated from H. zea neonates for establishing a control. The leaves were harvested at the end of the growing season and the caterpillars were removed. The tobacco leaves were air dried and processed. Each of the dried tobacco leaves were treated and extracted with 10 ml of 25 mM sodium phosphate buffer at 30° C. for about 24 hours at constant agitation.

[3] = tested on: parasitoids (wasps) (Cotesia glomerate); assay: Attraction of parasitoids (wasps) to cabbage plants treated with β-glucosidase; type: in vivo; conditions: amount of β-glucosidase in 25 μl
Description: We have discovered that generic defense mechanisms are elicited by herbivores such as caterpillars. In this example, a caterpillar (Pieris brassicae) attacked a cabbage plant releasing a defensive mixture of volatiles which attract parasitic wasps (Cotesia glomerate) which then attack and destroy the caterpillars. The caterpillar gut regurgitant contains enzymatic β-glucosidase which elicits the mixture of volatiles referred to above. Commercial β-glucosidase performs in a similar manner.
Cabbage (eight weeks old) and P. Brassicae (caterpillar) and parasitoids (wasps) were reared according to the method of Steinberg S. et al., Entomol. Exp. Appl 63 163-175 (1992). […] Ion chromatograms identified […], 1-hexanol, E-2-hexene 1-YL acetate as major components of the volatiles released by the cabbage plants. This experiment illustrates another specific example (compare to H. zea) of evolutionary arms race wherein an elicitor-antagonist biological system focuses on a defensive enzyme reaction.

Substance	Reduction of Nicotine [1] [mg/g]	nicotine content after treatment [2]	attraction of parasitoids (wasps) [3]
glucose oxidase [Active GOX]	0.60 to 0.70	0.01 mg of nicotine/per gram	–
β-glucosidase	–	–	clearly resulted in the attraction of parasitoids

Source: patent publication US20050113256A1, “Methods of reducing the nicotine content of tobacco plants and tobacco plants obtained thereby” (priority 2003, published 2005)
